One compound from publication PMC10093605, “ABCB1 and ABCG2 Overexpression Mediates Resistance to the Phosphatidylinositol 3-Kinase Inhibitor HS-173 in Cancer Cell Lines” (Cells, 2023) can be followed below.

SMILES strings stand for the structures.

The target in one experiment is T1, ABCB1 (Homo sapiens, UniProt P08183).
T1 construct: membrane vesicles of ABCB1-overexpressing High Five insect cells
Briefly: vanadate-sensitive ATPase, endpoint Pi assay, membrane vesicles. Format: biochemical. As to conditions: read-out: concentration to produce half of the maximum stimulation. An excerpt:
vanadate-sensitive ATPase, endpoint Pi assay, membrane vesicles on ABCB1 | HS-173 stimulated the ATPase activity of ABCB1 in a concentration-dependent manner

In another experiment the target is T2, ABCG2 (Homo sapiens, UniProt Q9UNQ0).
T2 construct: membrane vesicles of ABCG2-overexpressing High Five insect cells; homodimer
T2 sequence (Q9UNQ0 1-655): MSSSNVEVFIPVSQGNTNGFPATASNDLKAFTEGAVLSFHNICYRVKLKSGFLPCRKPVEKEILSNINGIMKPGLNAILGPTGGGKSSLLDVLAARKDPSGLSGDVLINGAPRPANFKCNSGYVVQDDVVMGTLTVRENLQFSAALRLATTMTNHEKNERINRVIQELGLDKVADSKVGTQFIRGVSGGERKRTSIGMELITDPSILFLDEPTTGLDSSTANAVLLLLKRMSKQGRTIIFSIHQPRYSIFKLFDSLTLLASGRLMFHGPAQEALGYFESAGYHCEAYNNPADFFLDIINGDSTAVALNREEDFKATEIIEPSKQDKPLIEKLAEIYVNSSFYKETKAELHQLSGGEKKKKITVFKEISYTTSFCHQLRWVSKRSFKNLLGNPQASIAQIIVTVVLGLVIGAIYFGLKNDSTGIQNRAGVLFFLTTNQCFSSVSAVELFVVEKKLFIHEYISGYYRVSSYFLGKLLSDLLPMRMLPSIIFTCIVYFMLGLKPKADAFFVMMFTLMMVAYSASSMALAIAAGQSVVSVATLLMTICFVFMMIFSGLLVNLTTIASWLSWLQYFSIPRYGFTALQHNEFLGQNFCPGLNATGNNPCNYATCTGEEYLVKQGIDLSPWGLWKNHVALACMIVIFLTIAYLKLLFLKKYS
The description is as above. In kind it is biochemical. As to conditions: read-out: concentration to produce half of the highest stimulation. The text has this:
vanadate-sensitive ATPase, endpoint Pi assay, membrane vesicles on ABCG2 | ABCG2-mediated ATP hydrolysis was stimulated by HS-173 in a concentration-dependent manner

T1 sequence (P08183 whole entry): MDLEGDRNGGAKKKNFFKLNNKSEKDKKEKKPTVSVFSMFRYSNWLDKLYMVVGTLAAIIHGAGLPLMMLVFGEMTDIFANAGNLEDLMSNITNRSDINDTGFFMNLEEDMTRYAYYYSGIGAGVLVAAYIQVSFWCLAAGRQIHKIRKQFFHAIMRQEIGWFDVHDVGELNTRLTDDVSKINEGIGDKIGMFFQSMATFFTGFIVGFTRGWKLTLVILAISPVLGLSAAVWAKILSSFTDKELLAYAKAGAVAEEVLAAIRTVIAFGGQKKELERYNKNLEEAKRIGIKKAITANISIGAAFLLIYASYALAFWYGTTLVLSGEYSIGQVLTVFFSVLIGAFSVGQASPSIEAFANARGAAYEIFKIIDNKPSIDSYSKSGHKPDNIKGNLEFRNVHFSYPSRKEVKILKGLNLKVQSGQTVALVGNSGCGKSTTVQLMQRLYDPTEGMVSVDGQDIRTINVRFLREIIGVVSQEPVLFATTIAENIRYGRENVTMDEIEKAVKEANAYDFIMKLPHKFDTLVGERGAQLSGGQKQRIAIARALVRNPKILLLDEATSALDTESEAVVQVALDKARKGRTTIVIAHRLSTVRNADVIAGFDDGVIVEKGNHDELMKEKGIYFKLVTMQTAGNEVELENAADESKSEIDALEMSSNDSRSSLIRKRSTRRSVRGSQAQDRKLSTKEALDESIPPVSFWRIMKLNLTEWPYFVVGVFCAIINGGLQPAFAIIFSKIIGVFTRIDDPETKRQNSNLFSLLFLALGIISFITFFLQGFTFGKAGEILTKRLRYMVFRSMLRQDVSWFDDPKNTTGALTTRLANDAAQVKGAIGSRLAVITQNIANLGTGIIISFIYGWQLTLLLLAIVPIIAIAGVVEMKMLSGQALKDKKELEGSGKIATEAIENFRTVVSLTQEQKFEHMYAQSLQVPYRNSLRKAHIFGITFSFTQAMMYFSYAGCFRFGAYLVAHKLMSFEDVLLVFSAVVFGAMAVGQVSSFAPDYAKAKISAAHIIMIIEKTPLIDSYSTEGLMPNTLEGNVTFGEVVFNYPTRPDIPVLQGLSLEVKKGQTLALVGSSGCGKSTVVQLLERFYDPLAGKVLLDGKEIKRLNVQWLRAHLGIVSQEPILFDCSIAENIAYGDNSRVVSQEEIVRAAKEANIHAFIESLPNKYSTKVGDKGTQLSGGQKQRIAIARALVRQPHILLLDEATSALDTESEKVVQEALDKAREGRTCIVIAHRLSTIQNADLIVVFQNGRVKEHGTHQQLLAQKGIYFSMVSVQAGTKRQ

As to `CCOC(=O)c1cnc2ccc(-c3cncc(NS(=O)(=O)c4ccccc4)c3)cn12` [HS-173], the EC50 on ABCB1 is roughly 1.7 µM; on ABCG2 it was roughly 0.4 µM.
